Ends that are not written are not given here.
What was measured:
[1] = target: T1, BCL6 BTB (Homo sapiens, UniProt P41182); test: Thermal shift assay (TSA); assay type: binding; settings: measured at 200 and 400 µM compound; binder if ≥ 1 °C
T1 construct: the tag was removed by HRV-3C protease treatment, generating a simpler BCL6 5–129 product; Thioredoxin (N, cleaved yes); 6His (N, cleaved yes); made in house; host or cells: E. coli BL21-AI
Experimental: Thermal shift assays were performed in 4titude FrameStar (Part No. 4ti-0385) 384 well skirted PCR plates: each well contained 10 µL of sodium acetate pH 6 buffer, 100 mM NaCl, 0.5 mM TCEP, 10 µM BCL6 BTB and 20 × Sypro Orange dye (Life Technologies), with or without inhibitor compound (100–400 µM) at 4% (v/v) final DMSO concentration. Plates were heated on a Biorad CFX384 real time thermocycler with a temperature gradient from 10 to 95 °C with a 0.5 °C increment, 0.15 s/cycle. Data were processed using Vortex (Dotmatics): a shift of the BCL6 BTB melting temperature (ΔTm) of + 1 °C or more was classed as indicative of BCL6 compound binding.

[2] = target: T2, BCL6 BTB domain (Homo sapiens, UniProt P41182); test: Fluorescence polarisation (FP) competition assay with BCOR-AF633 peptide; assay type: biochemical; settings: for FP pIC50 Mean / IC50: repurchased hits; for IC50: up to 2 mM, n=1-6, read-out: FP IC50 Geometric Mean
T2 construct: the tag was removed by HRV-3C protease treatment, generating a simpler BCL6 5–129 product; Thioredoxin (N, cleaved yes); 6His (N, cleaved yes); made in house; host or cells: E. coli BL21-AI
Experimental: A modified BCOR peptide containing a C-terminal cysteine, labelled with Alexa Fluor (AF)633 C5 maleimide ([…]-Cys(AF633)-amide) was obtained from Cambridge Research Biochemical. For high throughput screening, the assay was miniaturized from 10 µL in Perkin Elmer 384-well black Proxi Plus plates to 4 µL in Labcyte 1536-well black low dead volume LP-0410 plates. Each complete reaction (a modified version from[9],[17]) contained 20 mM Hepes/NaOH pH 8.0, 150 mM NaCl, 0.5 mM tris(2-carboxyethyl)phosphine (TCEP), 0.05% (v/v) Tween 20, 10 nM BCOR-AF633 peptide, 3 µM BCL6 BTB and 1–2% (v/v) DMSO. At this protein concentration, we recorded a FP signal of 80 to 90 mP, corresponding to about 55% BCOR-AF633 bound to the BCL6 BTB domain. Compounds and control BCOR peptide were dispensed using an Echo550 acoustic dispenser (Beckman Coulter). Protein and peptide reagents were added using a Multidrop combi (Thermo Scientific) or a Tempest v2 (Formulatrix). After 2 h incubation at room temperature, plates were read on an Envision plate reader (Perkin Elmer) with excitation and emission wavelengths of 620 nm and 688 nm, respectively, or Pherastar FSX (BMG Labtech) with FP filters module 590-50/675-50/675-50. […] As a low signal control, we used either the maximal inhibition by BCOR in the HTS campaign, or the signal obtained from the probe in the absence of BCL6 for IC50 determination. IC50 values were calculated using a sigmoidal dose–response (variable slope) four- parameter equation. Beside the FP measurement, the total fluorescence intensity (TFI) was recorded to allow identification of interfering compounds (TFI > 110% control)[26].

[3] = target: T1, BCL6 BTB; test: 19F ligand-observed NMR TFA-WVIP-NH2 peptide displacement assay; assay type: binding; settings: for 19F LO-NMR, % peptide displaced: 200 µM compound, 200 µM TFA-WVIP-NH2, 6 µM BCL6 BTB, mean ± SD, n=2, hit if ≥ 30%
Experimental: Each 180 µL ^19F-NMR peptide displacement assay contained 20 mM HEPES buffer pH 8, 100 mM NaCl, 0.5 mM TCEP, 10% D2O, 200 µM reporter TFA-WVIP-NH2, with or without 200 µM compound (4% D6-DMSO final) and 6 µM BCL6 BTB. Each 180 µL sample reaction was prepared in a 96-well plate and 170 µL transferred to a 3 mm NMR tube (Bruker, Part No. Z112272) using a Gilson liquid handler GX-281. NMR data were collected on a Bruker […] 500 MHz spectrometer equipped with a 5 mm BBFO probe. Data were acquired and processed using Bruker Topsin 2.1. The recovery of the reporter NMR signal upon addition of compound indicates competitive binding at the same site as the TFA-WVIP-NH2 tetrapeptide on the protein. We quantified the extent of recovery of NMR signal in % of reporter displacement[42]: \% displacement=Ireporter(+protein+compound)-Ireporter(+protein)/Ireporter(-protein)-Ireporter(+protein)X100\%

[4] = NMR kinetic solubility; assay type: physicochemical; settings: 500 µM final compound concentration, 20 mM HEPES buffer pH 8, 2% or 5% DMSO
Experimental: Solubility measurements by quantitative ^1H-NMR or HPLC method were performed as described previously.

[5] = target: T2, BCL6 BTB domain; test: Surface plasmon resonance (SPR); assay type: binding; settings: immobilised BCL6 BTB, pH 6.0, 1:1 equilibrium model;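 also: Fail means no measurable KD from unsaturated curves poor sensorgrams or non-1:1 stoichiometry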
Experimental: All surface plasmon resonance (SPR) experiments were carried out on a Biacore T200 (Cytiva) and amine coupling chemistry was used to immobilise the protein on a research grade CM5 sensor chip. The running buffer consisted of 100 mM sodium acetate, 100 mM sodium chloride, and 1 mM TCEP at pH 6.0. The chip’s surface was activated for 10 min using a 1:1 mixture of 100 mM N-hydroxysuccinimide and 400 mM 1-ethyl-3-(3-dimethylaminopropyl)-carbodiimide. BCL6 BTB protein was injected for 20 min at a concentration of 100 µg/mL in a 10 mM sodium acetate buffer (pH 5.5). Finally, the surface was blocked via an injection of 1 M ethanolamine pH 8.5 for 7 min. The flow rate was maintained at 10 µL/min for all the above procedures and ~ 10,000 response units (RU) of BCL6 was immobilised on the chip. Flow cell one was left unmodified as the reference surface.
Following protein immobilisation, the running buffer was changed to 100 mM sodium acetate, 100 mM sodium chloride, 1 mM TCEP, 0.05% Tween20 (v/v), 5% DMSO at pH 6.0.
All compound handling was performed on an ECHO 550 acoustic liquid dispenser and compounds were added to 384-well polypropylene V-bottomed plates (Greiner), which became the sample plates for the SPR. […] The flow rate was 30 µL/min, the injection time for the samples was 60 s, and the dissociation time was 60 s. The surface was not regenerated between sample injections. KD values were calculated from the Langmuir plot under equilibrium conditions using the 1:1 binding model in the Biacore software version 2 (Cytiva).

[6] = target: T3, Trx-6His-BCL6 BTB (Homo sapiens, UniProt P41182); test: TR-FRET assay, Trx-6His-BCL6 BTB / BCOR-A633 peptide; assay type: biochemical; settings: 1 or 10 nM Trx-6His-BCL6 BTB; read-out: TR-FRET IC50
T3 construct: made in house; host or cells: E. coli BL21-AI
Experimental: Each 15 µL TR-FRET reaction in 384-well black Proxiplate (Perkin Elmer) contained 1 or 10 nM Trx-6His-BCL6 BTB, 300 nM BCOR-A633 and 0.5 or 1 nM anti-6His-Terbium cryptate (Perkin Elmer), in the FP assay buffer (25 mM Hepes pH 8, 100 mM NaCl, 0.05% (v/v) Tween20, 0.5 mM TCEP), supplemented with 0.05% (w/v) bovine serum albumin. Test compounds in DMSO or DMSO alone were added to the wells using and Echo 550 acoustic dispenser to give the appropriate test concentration in 0.7% v/v DMSO final. After a 2 h incubation at room temperature, the plates were read on an Envision plate reader or a Pherastar FSX plate reader with 337 nm laser excitation, a first emission filter at 665 nm and a second emission filter at 615 or 620 nm. Data were normalised and IC50 determined as described above for the FP assay.

| Molecule | TSA Tm (thermal shift) [1] | FP pIC50 Mean [2] | IC50 [2] | 19F LO-NMR, % peptide displaced [3] | Sol. (NMR kinetic solubility) [4] | SPR KD [5] | Kd [5] | IC50 [6] | FP % inhibition at top concentration ([2]; printed beside IC50 >980 µM, 34% inhibition at 1 mM in text) | Displacement of BCL6-bound TFA-WVIP-NH2 peptide (recovery of fluorine signal) ([3]; Figure 3A, qualitative) | FP % inhibition ([2]; at 980 µM, n=4) |
| --- | --- | --- | --- | --- | --- | --- | --- | --- | --- | --- | --- |
| Cc1ccccc1C1CC(c2ccccc2)Nc2ncnn21 (centres unmarked) [Compound 1] | 0-1 ºC | 3.70 | 197 µM | 61 ± 4% | 71 µM | Fail | – | – | – | – | – |
| Fc1ccc(C2CC(c3cccc4ccccc34)n3ncnc3N2)cc1 (centres unmarked) [Compound 3] | 0.5-2 ºC | 3.99 | 102 µM | 54 ± 1% | 64 µM | Fail | – | – | – | – | – |
| Fc1ccc(C2CC(c3ccccc3Cl)Nc3ncnn32)cc1 (centres unmarked) [Compound 5] | 0 ºC | 3.71 | 194 µM | – | < 30 µM | – | – | – | – | – | – |
| COC(=O)C1=C(C)Nc2ncnn2C1c1ccc(C(=O)O)cc1 (centres unmarked) [Compound 6] | 0.5-1 ºC | 3.15 | 703 µM | 33.5 ± 1% | 538 µM | – | 659 µM | – | – | – | – |
| CCCC1=C(C(=O)OCC)C(c2cccnc2)n2ncnc2N1 (centres unmarked) [Compound 7] | 0.5-3 ºC | 4.02 | 95.5 µM | 82.5 ± 5% | 476 µM | – | 168 µM | – | – | – | – |
| CCC1=C(C(=O)OC)C(c2ccccc2F)n2ncnc2N1 (centres unmarked) [Compound 8] | 0.5-2 ºC | 3.66 | 219 µM | – | 70 µM | Fail | – | – | – | – | – |
| Cc1cc(NCc2ccc3c(c2)OCO3)n2ncnc2n1 [Compound 9] | – | 3.32 | 477 µM | 49.5 ± 9% | 96 µM | Fail | – | – | – | – | – |
| N#Cc1c(C(F)(F)F)cc(-c2cccs2)nc1SC(C(=O)O)c1ccccc1 (centres unmarked) [Compound 13] | 0-2.5 ºC | 3.64 | 230 µM | 102 ± 1% | 313 µM | – | 672 µM | – | – | – | – |
| O=C(NCc1ccccn1)c1csc(Nc2ccccc2Cl)n1 [Compound 14] | 1-2.5 ºC | 3.74 | 183 µM | 78 ± 23% | 188 µM | – | 302 µM | – | – | – | – |
| O=C(NCCCN1CCOCC1)c1csc(Nc2cccc3ccccc23)n1 [Compound 15] | – | 3.83 | 150 µM | 70 ± 1% | 83 µM | – | 553 µM | – | – | – | – |
| Cn1c(=O)n(C)c2cc(Nc3cc(SCc4ccccc4)ncn3)ccc21 [Compound 17] | – | 4.15 | 70.2 µM | 100 ± 1% | 39 µM | – | 49 µM | 54 µM | – | – | – |
| Cn1c(=O)n(C)c2cc(Nc3cc(N4CCOCC4)ncn3)ccc21 [Compound 18] | 0-0.5 ºC | – | > 980 µM | – | 55 µM | – | – | – | 34% | – | – |
| COc1cccc(CN(C)c2nc3c(cnn3C(C)(C)C)c(=O)[nH]2)c1 [Compound 20] | 0 ºC | 3.18 | 666 µM | – | < 30 µM | – | – | – | – | – | – |
| CC(C)CCn1c(SCC(=O)Nc2ccccc2F)nc2nccnc2c1=O [Compound 22] | 0.5-1 ºC | 3.45 | 353 µM | 23 ± 11% | 163 µM | – | 1190 µM | – | – | – | – |
| EGLVATVKEAGRSIHEIPR [SMRT, reference compound] | – | – | – | – | – | – | – | – | – | able to displace | – |
| WVIP peptide: hybrid BCOR/SMRT tetrapeptide with an Ac-WVIP-NH2 sequence [reference compound] | – | – | – | – | – | – | – | – | – | – | 16% |

From PMC9633773, “Discovering cell-active BCL6 inhibitors: effectively combining biochemical HTS with multiple biophysical techniques, X-ray crystallography and cell-based assays” (Scientific Reports, 2022)
